In patent US20260274894A1, “CYCLIC POLYPEPTIDE COMPOUND AND USE THEREOF” (BIVISION PHARMACEUTICALS, INC., priority 2023, published 2026):
Numbered stars: 1 amine (or outer) side, 2 acyl side, 3 side chain; on linkers, the order of the positions; unused ones are H or OH. Bridge positions count the residues as written; N and C are the ends. Square brackets hold non-standard residues; d marks the D form. Side chains are listed from the residue outwards. Peptide text beside a SMILES is read from it. * marks the point of attachment. ξ: configuration not given here. TBMB(SCH2CH2NH-DOTA) = O=C(O)CN1CCN(CC(=O)O)CCN(CC(=O)NCCSCc2cc(C[*:1])cc(C[*:2])c2)CCN(CC(=O)O)CC1; NH(CH2)2O(CH2)2NHDOTA = O=C(O)CN1CCN(CC(=O)O)CCN(CC(=O)NCCOCCN*)CCN(CC(=O)O)CC1; X4 = O=C(O)CN1CCN(CC(=O)O)CCN(CC(=O)N2CCc3cc(C(=O)*)ccc3C2)CCN(CC(=O)O)CC1; X5 = CCCCCC(=O)N[C@@H](CSCc1cccc(C[*:2])c1)C(=O)N1CCC[C@@H](NC(=O)[*:1])C1; X3 = O=C(O)CN1CCN(CC(=O)O)CCN(CC(=O)NCCOCCOCCOCCN*)CCN(CC(=O)O)CC1; DOTA = O=C(O)CN1CCN(CC(=O)O)CCN(CC(=O)*)CCN(CC(=O)O)CC1; Azetidine3carboxylic = O=C(C1CN([*:1])C1)[*:2]; γGlu = O=C(O)[C@H](CCC(=O)[*:2])N[*:1]; βAsp = O=C(O)[C@H](CC(=O)[*:2])N[*:1]; mXylylene = c1cc(C[*:1])cc(C[*:2])c1; ξγGlu = O=C(O)C(CCC(=O)[*:2])N[*:1]; Ethylenediamine = C(CN[*:2])N[*:1]; Cha = N[C@@H](CC1CCCCC1)C(=O)O; Decanoyl = CCCCCCCCCC(=O)*; Octanoyl = CCCCCCCC(=O)*; Hexanoyl = CCCCCC(=O)*; ξP = O=C(O)C1CCCN1; ξC = NC(CS)C(=O)O

Target: T1, FAP protein (Homo sapiens, UniProt Q12884)
T1 construct: purchased Sinobiological
T1 sequence (Q12884 1-760): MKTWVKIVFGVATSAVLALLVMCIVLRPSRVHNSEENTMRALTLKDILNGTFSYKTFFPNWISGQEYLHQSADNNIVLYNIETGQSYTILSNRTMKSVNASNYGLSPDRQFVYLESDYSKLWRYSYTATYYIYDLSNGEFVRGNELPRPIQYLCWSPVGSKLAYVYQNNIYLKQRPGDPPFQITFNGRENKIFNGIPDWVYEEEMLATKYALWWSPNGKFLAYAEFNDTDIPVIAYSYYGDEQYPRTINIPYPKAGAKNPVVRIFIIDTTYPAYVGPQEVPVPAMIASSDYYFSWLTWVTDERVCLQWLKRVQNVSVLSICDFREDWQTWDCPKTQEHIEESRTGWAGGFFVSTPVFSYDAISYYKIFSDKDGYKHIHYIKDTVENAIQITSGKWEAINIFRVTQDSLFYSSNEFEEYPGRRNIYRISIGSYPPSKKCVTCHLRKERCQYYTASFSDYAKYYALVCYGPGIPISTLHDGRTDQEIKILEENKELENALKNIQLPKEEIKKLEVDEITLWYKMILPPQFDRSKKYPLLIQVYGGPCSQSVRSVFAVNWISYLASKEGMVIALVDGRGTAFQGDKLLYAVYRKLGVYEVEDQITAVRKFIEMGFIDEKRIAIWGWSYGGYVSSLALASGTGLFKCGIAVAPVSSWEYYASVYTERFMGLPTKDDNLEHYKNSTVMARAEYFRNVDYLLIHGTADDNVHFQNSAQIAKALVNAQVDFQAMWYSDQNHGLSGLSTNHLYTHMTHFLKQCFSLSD
Experiment: Biacore test of compound affinity to FAP protein
Conditions: Biacore 8K, SA chip, 15° C., 1:1 binding model
Protocol: The Biacore 8K (Cytiva) instrument was used to detect ligand binding of the FAP protein (Sinobiological). FAP protein was captured on the SA chip. […] The sensor surface was conditioned by injecting 1M NaCl three consecutive times in 50 mM NaOH. After each ligand injection, additional cleaning was performed using isopropanol in 1M NaCl and 50 mM NaOH (flow path 1 and 2, flow rate of 10 μL/min, injection time of 60 s). […] The analyte was run under the following conditions: analysis temperature of 15° C., analysis step=all set to LMW kinetics; cycle type=single cycle (contact time of 90 s, dissociation time of 1800 s, flow rate of 30 μL/min, flow channels 1 and 2); channel detection=2-1. Data was evaluated using the Biacore Insight Evaluation Software, and the data were fitted to a 1:1 binding model. The Biacore results are shown in Table 2 below: pKD=−Log KD, where KD is the binding affinity of the compound to the FAP protein as measured by Biacore.

pKD (FAP) | Compound
B (B: 7<pKD<8) | CCCCCC(=O)N[C@H]1CSCc2cccc(c2)CSC[C@@H](C(=O)N[C@@H](CCC(=O)NCCNC(=O)CN2CCN(CC(=O)O)CCN(CC(=O)O)CCN(CC(=O)O)CC2)C(=O)O)NC(=O)[C@H](Cc2ccccc2)NC(=O)[C@H](CCC(N)=O)NC(=O)[C@H]([C@@H](C)O)NC(=O)[C@@H]2CCCN2C(=O)C2CN(C2)C1=O (single isomer, unassigned) [^175Lu-JHDC23]

Same assay, conditions: Biacore 8K, SA chip, 15° C., 1:1 binding model; read-out: pKD (FAP) (converted)

Compound | Kd [nM]
CCCCCC(=O)N[C@H]1CSCc2cccc(c2)CSCC(C(=O)N[C@@H](CCC(=O)NCCOCCNC(=O)CN2CCN(CC(=O)O)CCN(CC(=O)O)CCN(CC(=O)O)CC2)C(=O)O)NC(=O)[C@H](CC2CCCCC2)NC(=O)CNC(=O)[C@H](CCC(N)=O)NC(=O)[C@H]([C@@H](C)O)NC(=O)C2CCCN2C(=O)C2CN(C2)C1=O (stereo partly drawn) [JHDC09, Hex[Cys(3MeBn)-hhy39-Pro-Thr-Gln-Gly-hhy34-Cys]-Glu-(DAPEG2-DOTA)-OH] (Hexanoyl-C[Azetidine3carboxylic][ξP]TQG[Cha][ξC]E(NH(CH2)2O(CH2)2NHDOTA)-OH; linker 1-8 via mXylylene) | 10 to 100
CCCCCC(=O)N[C@H]1CSCc2cccc(c2)CSCC(C(=O)N[C@@H](CCC(=O)NCCOCCNC(=O)CN2CCN(CC(=O)O)CCN(CC(=O)O)CCN(CC(=O)O)CC2)C(=O)O)NC(=O)CNC(=O)[C@H](CC2CCCCC2)NC(=O)[C@H](CCC(N)=O)NC(=O)[C@H]([C@@H](C)O)NC(=O)C2CCCN2C(=O)C2CN(C2)C1=O (stereo partly drawn) [JHDC17, Hex[Cys(3MeBn)-hhy39-Pro-Thr-Gln-hhy34-Gly-Cys]-Glu-(DAPEG2-DOTA)-OH] (Hexanoyl-C[Azetidine3carboxylic][ξP]TQ[Cha]G[ξC]E(NH(CH2)2O(CH2)2NHDOTA)-OH; linker 1-8 via mXylylene) | 10 to 100
CCCCCCCCCC(=O)N[C@H]1CSCc2cccc(c2)CSC[C@@H](C(=O)N[C@@H](CCC(=O)N[C@@H](CCCNC(=N)N)C(=O)NCC(=O)N[C@@H](CC(=O)NCCNC(=O)CN2CCN(CC(=O)O)CCN(CC(=O)O)CCN(CC(=O)O)CC2)C(=O)O)C(=O)O)NC(=O)[C@H](Cc2ccccc2)NC(=O)[C@H](CCC(N)=O)NC(=O)[C@H]([C@@H](C)O)NC(=O)[C@@H]2CCCN2C(=O)C2CN(C2)C1=O [JHDC18, Dec[Cys(3MeBn)-hhy39-Pro-Thr-Gln-Phe-Cys]-Glu-(Arg-Gly-Asp(EDA-DOTA))-OH] (Decanoyl-C[Azetidine3carboxylic]PTQFC[γGlu]RG[βAsp]-{Ethylenediamine-DOTA}; linker 1-7 via mXylylene) | 10 to 100
CCCCCCCCCC(=O)N[C@H]1CSCc2cccc(c2)CSC[C@@H](C(=O)N[C@@H](CCC(=O)N[C@@H](CCCNC(=N)N)C(=O)NCC(=O)N[C@@H](CC(=O)NCCNC(=O)CN2CCN(CC(=O)O)CCN(CC(=O)O)CCN(CC(=O)O)CC2)C(=O)O)C(=O)O)NC(=O)[C@H](CC2CCCCC2)NC(=O)[C@H](CCC(N)=O)NC(=O)[C@H]([C@@H](C)O)NC(=O)[C@@H]2CCCN2C(=O)C2CN(C2)C1=O [JHDC19, Dec[Cys(3MeBn)-hhy39-Pro-Thr-Gln-hhy34-Cys]-Glu-(Arg-Gly-Asp(EDA-DOTA))-OH] (Decanoyl-C[Azetidine3carboxylic]PTQ[Cha]C[γGlu]RG[βAsp]-{Ethylenediamine-DOTA}; linker 1-7 via mXylylene) | 10 to 100
CCCCCCCC(=O)N[C@H]1CSCc2cc(CSCCNC(=O)CN3CCN(CC(=O)O)CCN(CC(=O)O)CCN(CC(=O)O)CC3)cc(c2)CSC[C@@H](C(=O)NC(CCC(=O)N[C@@H](CCCNC(=N)N)C(=O)NCC(=O)N[C@@H](CC(N)=O)C(=O)O)C(=O)O)NC(=O)[C@H](CC2CCCCC2)NC(=O)[C@H](CCC(N)=O)NC(=O)[C@H]([C@@H](C)O)NC(=O)C2CCCN2C(=O)C2CN(C2)C1=O (stereo partly drawn) [JHDC21, Oct[Cys(tMeBn-DOTA-AET)-hhy39-Pro-Thr-Gln-hhy34-Cys]-Glu-(Arg-Gly-Asp(NH2))-OH] (Octanoyl-C[Azetidine3carboxylic][ξP]TQ[Cha]C[ξγGlu]RGN-OH; linker 1-7 via TBMB(SCH2CH2NH-DOTA)) | 10 to 100
CCCCCC(=O)N[C@H]1CSCc2cccc(c2)CSCC(C(=O)N[C@@H](CCC(=O)NCCNC(=O)c2ccc3c(c2)CCN(C(=O)CN2CCN(CC(=O)O)CCN(CC(=O)O)CCN(CC(=O)O)CC2)C3)C(=O)O)NC(=O)[C@H](Cc2ccccc2)NC(=O)[C@H](CCC(N)=O)NC(=O)[C@H]([C@@H](C)O)NC(=O)C2CCCN2C(=O)C2CN(C2)C1=O (stereo partly drawn) [JHDC25, Hex[Cys(3MeBn)-hhy39-Pro-Thr-Gln-Phe-Cys]-Glu-(EDA-hhy02-DOTA)-OH] (Hexanoyl-C[Azetidine3carboxylic][ξP]TQF[ξC]E([Ethylenediamine-X4])-OH; linker 1-7 via mXylylene) | 10 to 100

Other lines, results leading:

Kd [nM] | Compound
< 10 | CCCCCC(=O)N[C@H]1CSCc2cccc(c2)CSCC(C(=O)N[C@@H](CCC(=O)NCCOCCNC(=O)CN2CCN(CC(=O)O)CCN(CC(=O)O)CCN(CC(=O)O)CC2)C(=O)O)NC(=O)[C@H](CC2CCCCC2)NC(=O)[C@H](CCC(N)=O)NC(=O)[C@H]([C@@H](C)O)NC(=O)C2CCCN2C(=O)C2CN(C2)C1=O (stereo partly drawn) [JHDC05, Hex[Cys(3MeBn)-hhy39-Pro-Thr-Gln-hhy34-Cys]-Glu-(DAPEG2-DOTA)-OH] (Hexanoyl-C[Azetidine3carboxylic][ξP]TQ[Cha][ξC]E(NH(CH2)2O(CH2)2NHDOTA)-OH; linker 1-7 via mXylylene)
< 10 | CCCCCC(=O)N[C@H]1CSCc2cccc(c2)CSCC(C(=O)N[C@@H](CCC(=O)NCCOCCNC(=O)CN2CCN(CC(=O)O)CCN(CC(=O)O)CCN(CC(=O)O)CC2)C(=O)O)NC(=O)[C@H](Cc2ccccc2)NC(=O)[C@H](CCC(N)=O)NC(=O)[C@H]([C@@H](C)O)NC(=O)C2CCCN2C(=O)C2CN(C2)C1=O (stereo partly drawn) [JHDC06, Hex[Cys(3MeBn)-hhy39-Pro-Thr-Gln-Phe-Cys]-Glu-(DAPEG2-DOTA)-OH] (Hexanoyl-C[Azetidine3carboxylic][ξP]TQF[ξC]E(NH(CH2)2O(CH2)2NHDOTA)-OH; linker 1-7 via mXylylene)
10 to 100 | CCCCCC(=O)N[C@H]1CSCc2cccc(c2)CSCC(C(=O)N[C@@H](CCCCNC(=O)CN2CCN(CC(=O)O)CCN(CC(=O)O)CCN(CC(=O)O)CC2)C(=O)O)NC(=O)[C@H](Cc2ccccc2)NC(=O)[C@H](CCC(N)=O)NC(=O)[C@H]([C@@H](C)O)NC(=O)C2CCCN2C(=O)N[C@@H]2CCCN(C2)C1=O (stereo partly drawn) [JHDC07, Hex[Cys(3MeBn)-hhy44(NH)—CO-Pro-Thr-Gln-Phe-Cys]-Lys-(DOTA)-OH] ([ξP]TQF[ξC]K(DOTA)-OH; linker N-5 via X5)
10 to 100 | CCCCCC(=O)N[C@H]1CSCc2cccc(c2)CSC[C@@H](C(=O)NCCOCCNC(=O)CN2CCN(CC(=O)O)CCN(CC(=O)O)CCN(CC(=O)O)CC2)NC(=O)[C@H](Cc2ccccc2)NC(=O)[C@H](CCC(N)=O)NC(=O)[C@H]([C@@H](C)O)NC(=O)[C@@H]2CCCN2C(=O)C2CN(C2)C1=O [JHDC10, Hex[Cys(3MeBn)-hhy39-Pro-Thr-Gln-Phe-Cys]-DAPEG2-DOTA] (Hexanoyl-C[Azetidine3carboxylic]PTQFC-{NH(CH2)2O(CH2)2NHDOTA}; linker 1-7 via mXylylene)
10 to 100 | CCCCCC(=O)N[C@H]1CCCCn2cc(nn2)CSC[C@@H](C(=O)N[C@@H](CCCCNC(=O)COCCNC(=O)CN2CCN(CC(=O)O)CCN(CC(=O)O)CCN(CC(=O)O)CC2)C(=O)O)NC(=O)[C@H](Cc2ccccc2)NC(=O)[C@H](CCC(N)=O)NC(=O)[C@H]([C@@H](C)O)NC(=O)[C@@H]2CCCN2C(=O)C2CN(C2)C1=O [JHDC12, Hex[2AHA(Triazole)-hhy39-Pro-Thr-Gln-Phe-CSMC]-Lys-(AEAA-DOTA)-OH]
10 to 100 | CCCCCC(=O)N[C@H]1CSCc2cccc(c2)CSCC(C(=O)N[C@@H](CCC(=O)NCCOCCOCCOCCNC(=O)CN2CCN(CC(=O)O)CCN(CC(=O)O)CCN(CC(=O)O)CC2)C(=O)O)NC(=O)[C@H](CC2CCCCC2)NC(=O)[C@H](CCC(N)=O)NC(=O)[C@H]([C@@H](C)O)NC(=O)C2CCCN2C(=O)C2CN(C2)C1=O (stereo partly drawn) [JHDC16, Hex[Cys(3MeBn)-hhy39-Pro-Thr-Gln-hhy34-Cys]-Glu-(DAPEG4-DOTA)-OH] (Hexanoyl-C[Azetidine3carboxylic][ξP]TQ[Cha][ξC]E(X3)-OH; linker 1-7 via mXylylene)
